Each structure is given as a SMILES string.

Holding throughout (test): Cysteine liganding, probe competition
Holding throughout (format): binding

Test [1] addresses T1, UBR2 E3 ubiquitin-protein ligase UBR2 (Homo sapiens, UniProt Q8IWV8).
T1 construct: Cells were resuspended in cold PBS on ice and sonicated with a probe sonicator to achieve lysis; endogenous in cells
An outline of the steps: (§1)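 Read-out is loss of desthiobiotin iodoacetamide labelling at cysteines, measured on streptavidin-enriched tryptic peptides. Compound preincubation ran 1 hr at 25° C in PBS lysate holding 5 mg/ml proteome before the probe was added.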

Test [2] has as its target T2, RNF40 E3 ubiquitin-protein ligase BRE1B (Homo sapiens, UniProt O75150).
T2 construct: Cells were resuspended in cold PBS on ice and sonicated with a probe sonicator to achieve lysis; endogenous in cells
An outline of the steps:
as §1

In test [3] the target is T3, KIAA0528 Uncharacterized protein KIAA0528 (Homo sapiens, UniProt Q86YS7).
T3 construct: Cells were resuspended in cold PBS on ice and sonicated with a probe sonicator to achieve lysis; endogenous in cells
T3 sequence (Q86YS7 1-1000): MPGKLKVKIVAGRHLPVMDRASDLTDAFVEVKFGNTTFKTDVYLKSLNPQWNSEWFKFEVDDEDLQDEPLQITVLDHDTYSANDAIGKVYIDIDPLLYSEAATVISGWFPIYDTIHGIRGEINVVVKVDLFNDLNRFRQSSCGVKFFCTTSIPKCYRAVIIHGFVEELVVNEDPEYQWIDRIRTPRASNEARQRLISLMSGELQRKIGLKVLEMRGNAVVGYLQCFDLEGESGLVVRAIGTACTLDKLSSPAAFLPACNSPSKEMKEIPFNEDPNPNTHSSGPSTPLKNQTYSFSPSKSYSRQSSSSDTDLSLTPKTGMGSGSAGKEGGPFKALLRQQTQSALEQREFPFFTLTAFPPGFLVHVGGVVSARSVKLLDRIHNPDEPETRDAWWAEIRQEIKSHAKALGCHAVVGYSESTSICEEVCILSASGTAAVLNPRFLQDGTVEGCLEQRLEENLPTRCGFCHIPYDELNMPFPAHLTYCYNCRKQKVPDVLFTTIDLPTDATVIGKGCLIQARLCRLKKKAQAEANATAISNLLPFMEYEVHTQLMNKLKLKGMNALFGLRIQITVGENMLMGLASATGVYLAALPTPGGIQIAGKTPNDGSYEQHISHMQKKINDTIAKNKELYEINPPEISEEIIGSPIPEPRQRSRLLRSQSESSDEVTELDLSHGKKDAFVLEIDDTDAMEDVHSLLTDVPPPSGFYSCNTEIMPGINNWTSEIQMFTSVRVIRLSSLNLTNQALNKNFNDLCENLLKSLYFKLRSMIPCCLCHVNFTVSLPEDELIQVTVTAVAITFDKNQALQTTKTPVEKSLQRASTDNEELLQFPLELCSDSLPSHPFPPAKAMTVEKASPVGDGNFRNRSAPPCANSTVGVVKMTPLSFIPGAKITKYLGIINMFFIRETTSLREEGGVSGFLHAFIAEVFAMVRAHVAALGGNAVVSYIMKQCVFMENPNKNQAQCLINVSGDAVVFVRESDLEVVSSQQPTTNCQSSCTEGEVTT
An outline of the steps: as §1

T2 sequence (O75150 whole entry): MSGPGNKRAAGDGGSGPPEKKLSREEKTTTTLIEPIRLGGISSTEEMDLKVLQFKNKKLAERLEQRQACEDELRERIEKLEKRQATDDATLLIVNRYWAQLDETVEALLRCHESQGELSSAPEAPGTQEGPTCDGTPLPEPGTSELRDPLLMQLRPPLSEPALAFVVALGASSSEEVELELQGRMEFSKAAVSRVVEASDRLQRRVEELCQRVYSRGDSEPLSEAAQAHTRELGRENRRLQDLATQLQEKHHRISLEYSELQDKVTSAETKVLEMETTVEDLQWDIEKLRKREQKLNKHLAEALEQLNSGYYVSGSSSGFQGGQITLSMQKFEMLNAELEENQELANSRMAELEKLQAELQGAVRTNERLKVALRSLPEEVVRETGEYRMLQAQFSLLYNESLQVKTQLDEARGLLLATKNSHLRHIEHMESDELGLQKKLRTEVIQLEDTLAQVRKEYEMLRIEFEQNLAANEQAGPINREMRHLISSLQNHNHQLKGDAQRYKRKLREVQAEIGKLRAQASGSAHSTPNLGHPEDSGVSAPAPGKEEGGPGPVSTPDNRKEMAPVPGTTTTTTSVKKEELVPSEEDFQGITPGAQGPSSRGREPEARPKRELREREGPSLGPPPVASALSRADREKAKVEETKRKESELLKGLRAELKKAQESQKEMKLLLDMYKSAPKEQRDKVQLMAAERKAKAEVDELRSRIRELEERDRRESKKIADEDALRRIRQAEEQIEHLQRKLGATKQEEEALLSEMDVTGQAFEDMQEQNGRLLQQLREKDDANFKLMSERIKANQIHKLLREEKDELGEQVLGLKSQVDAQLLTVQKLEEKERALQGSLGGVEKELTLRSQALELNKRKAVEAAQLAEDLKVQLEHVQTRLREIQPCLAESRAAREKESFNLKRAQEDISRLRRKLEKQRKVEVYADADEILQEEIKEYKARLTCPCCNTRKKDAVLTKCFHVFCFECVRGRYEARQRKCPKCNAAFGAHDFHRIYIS
T1 sequence (Q8IWV8 whole entry): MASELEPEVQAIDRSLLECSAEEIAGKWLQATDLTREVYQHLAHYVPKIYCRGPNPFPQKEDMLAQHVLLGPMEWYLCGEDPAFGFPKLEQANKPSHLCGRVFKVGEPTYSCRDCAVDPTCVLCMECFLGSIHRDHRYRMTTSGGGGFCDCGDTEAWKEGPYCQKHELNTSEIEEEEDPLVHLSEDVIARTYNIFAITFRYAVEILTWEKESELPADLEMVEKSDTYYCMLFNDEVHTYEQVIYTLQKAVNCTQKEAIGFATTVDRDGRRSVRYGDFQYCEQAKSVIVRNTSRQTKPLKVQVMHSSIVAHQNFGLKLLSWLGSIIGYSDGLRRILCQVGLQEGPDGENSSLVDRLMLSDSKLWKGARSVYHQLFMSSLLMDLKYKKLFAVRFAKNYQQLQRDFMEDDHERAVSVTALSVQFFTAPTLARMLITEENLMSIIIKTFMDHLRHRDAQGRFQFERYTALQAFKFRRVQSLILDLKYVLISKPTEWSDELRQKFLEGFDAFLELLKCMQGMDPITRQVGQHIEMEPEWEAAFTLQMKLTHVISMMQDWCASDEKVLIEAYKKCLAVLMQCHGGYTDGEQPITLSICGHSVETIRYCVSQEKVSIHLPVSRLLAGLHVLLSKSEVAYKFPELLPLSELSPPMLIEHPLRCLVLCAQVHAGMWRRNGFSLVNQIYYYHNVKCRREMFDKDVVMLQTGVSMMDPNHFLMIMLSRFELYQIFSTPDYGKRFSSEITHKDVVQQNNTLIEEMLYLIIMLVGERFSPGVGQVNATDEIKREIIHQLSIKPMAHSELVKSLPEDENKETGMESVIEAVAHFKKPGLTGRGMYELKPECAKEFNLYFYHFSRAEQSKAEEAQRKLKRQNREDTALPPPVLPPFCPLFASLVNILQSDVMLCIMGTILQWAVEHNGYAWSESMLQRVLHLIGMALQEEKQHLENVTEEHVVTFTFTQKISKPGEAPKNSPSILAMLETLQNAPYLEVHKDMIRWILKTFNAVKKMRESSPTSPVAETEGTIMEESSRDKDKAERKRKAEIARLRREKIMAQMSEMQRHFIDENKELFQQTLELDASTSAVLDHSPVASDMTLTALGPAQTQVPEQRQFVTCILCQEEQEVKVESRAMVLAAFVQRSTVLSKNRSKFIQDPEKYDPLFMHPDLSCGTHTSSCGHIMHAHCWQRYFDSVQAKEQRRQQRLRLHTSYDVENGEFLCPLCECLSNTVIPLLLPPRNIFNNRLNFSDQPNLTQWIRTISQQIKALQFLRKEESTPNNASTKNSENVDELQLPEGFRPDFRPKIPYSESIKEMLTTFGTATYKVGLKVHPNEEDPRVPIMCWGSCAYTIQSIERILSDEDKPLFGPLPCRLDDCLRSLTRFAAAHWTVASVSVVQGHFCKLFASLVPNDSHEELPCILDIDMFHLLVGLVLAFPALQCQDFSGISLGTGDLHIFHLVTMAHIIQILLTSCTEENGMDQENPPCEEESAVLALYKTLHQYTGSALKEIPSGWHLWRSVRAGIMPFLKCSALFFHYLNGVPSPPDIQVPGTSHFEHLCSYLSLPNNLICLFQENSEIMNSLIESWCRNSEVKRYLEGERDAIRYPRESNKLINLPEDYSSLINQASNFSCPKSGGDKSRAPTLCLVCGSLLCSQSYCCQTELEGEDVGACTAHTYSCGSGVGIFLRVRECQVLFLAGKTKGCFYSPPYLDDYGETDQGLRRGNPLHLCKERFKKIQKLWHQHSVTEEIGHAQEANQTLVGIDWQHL

Take `O=C(CCl)Nc1cc(C(F)(F)F)cc(C(F)(F)F)c1` [KBO3]: the “100 Max” value was 18.5 in test [1] (uniprot Q8IWV8); −5.2 in test [2] (uniprot O75150, in % (unit assumed)); 7.23% in test [3] (uniprot Q86YS7, unit assumed). Further, the 100 ave was 8.3 in test [1] (uniprot Q8IWV8), −9.9 in test [2] (uniprot O75150) and −6.4125 in test [3] (uniprot Q86YS7). The 500 ave in test [1] (uniprot Q8IWV8) is 60.0; in test [2] (uniprot O75150), 24.5; in test [3] (uniprot Q86YS7), 33.415. Also, the 500 Max in test [1] (uniprot Q8IWV8, unit assumed) worked out at 65.9%; in test [2] (uniprot O75150), 29.2; in test [3] (uniprot Q86YS7) it was 46.81.

With `COc1ccc2c(c1)CCCN2C(=O)CCl` [KB02], the Liganded entry in test [1] (UBR2 Res# 1717, uniprot Q8IWV8) was “YES”; in test [2] (RNF40 Res# 890, uniprot O75150), “YES”; in test [3] (KIAA0528 Res# 867, uniprot Q86YS7) it was “YES”. Further, the percent_inhibition in test [2] (500 uM, UniProt O75150) amounted to 24%.

Source of the values: patent publication US20200239530A1, “COMPOUNDS AND METHODS OF MODULATING PROTEIN DEGRADATION” (Vividion Therapeutics, Inc., priority 2017, published 2020).
